# Measured values: PubChem BioAssay AID248 (DTP/NCI, 2004)
# Values joined by “and” are separate entries in the source; they are usually repeats but may differ in a detail not shown here. Equal values may be shown once. Toxic doses and inconclusive results are not listed.
# Tested on: L1210 leukemia ip in BDF1 mice, survival T/C
# Experiment: NCI In Vivo Anticancer Drug Screen. Data for tumor model L1210 Leukemia (intraperitoneal) in B6D2F1 (BDF1) mice
# Details: endpoint: mean survival time, higher = longer survival
# In short: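 Transplanted-tumor mice were given test agent; controls received vehicle only. Survival readings from the two groups were divided (treated over control).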
# [1] = dose: 100.0 mg/kg/injection, schedule: Q01DX009 (ip), vehicle: saline
# [2] = dose: 100.0 mg/kg/injection, schedule: Q04DX003 (ip), vehicle: saline
# [3] = dose: 200.0 mg/kg/injection, schedule: Q01DX009 (ip), vehicle: saline
# [4] = dose: 200.0 mg/kg/injection, schedule: Q04DX003 (ip), vehicle: saline
# [5] = dose: 400.0 mg/kg/injection, schedule: Q01DX009 (ip), vehicle: saline
# [6] = dose: 400.0 mg/kg/injection, schedule: Q04DX003 (ip), vehicle: saline
# [7] = dose: 100.0 mg/kg/injection, schedule: Q01DX001 (ip), vehicle: saline
# [8] = dose: 200.0 mg/kg/injection, schedule: Q01DX001 (ip), vehicle: saline
# [9] = dose: 400.0 mg/kg/injection, schedule: Q01DX001 (ip), vehicle: saline
# [10] = dose: 75.0 mg/kg/injection, schedule: Q01DX001 (ip), vehicle: carboxymethylcellulose (CMC)
# [11] = dose: 150.0 mg/kg/injection, schedule: Q01DX001 (ip), vehicle: carboxymethylcellulose (CMC)
# [12] = dose: 100.0 mg/kg/injection, schedule: Q01DX009 (ip), vehicle: Klucel (hydroxypropylcellulose) (HPC)
# [13] = dose: 400.0 mg/kg/injection, schedule: Q01DX009 (ip), vehicle: Klucel (hydroxypropylcellulose) (HPC)
# [14] = dose: 100.0 mg/kg/injection, schedule: Q04DX003 (ip), vehicle: Klucel (hydroxypropylcellulose) (HPC)
# [15] = dose: 200.0 mg/kg/injection, schedule: Q04DX003 (ip), vehicle: Klucel (hydroxypropylcellulose) (HPC)
# [16] = dose: 400.0 mg/kg/injection, schedule: Q04DX003 (ip), vehicle: Klucel (hydroxypropylcellulose) (HPC)
# [17] = dose: 100.0 mg/kg/injection, schedule: Q04DX003 (ip), vehicle: saline with Tween-80
# [18] = dose: 200.0 mg/kg/injection, schedule: Q04DX003 (ip), vehicle: saline with Tween-80
# [19] = dose: 400.0 mg/kg/injection, schedule: Q04DX003 (ip), vehicle: saline with Tween-80
# [20] = dose: 200.0 mg/kg/injection, schedule: Q01DX009 (ip), vehicle: Klucel (hydroxypropylcellulose) (HPC)
compound,measurement,setting,value
O=S(=O)(O)c1cc(Cl)cc(Cl)c1O,T/C,[1],96 % of control
same,T/C,[2],113 % of control
same,T/C,[3],100 % of control
same,T/C,[4],105 % of control
same,T/C,[5],105 % of control
same,T/C,[6],107 % of control
C/C(=C1\C(=O)Nc2ccccc21)c1cccnc1,T/C,"dose: 25.0 mg/kg/injection, schedule: Q01DX Z (ip), vehicle: carboxymethylcellulose (CMC)",103 % of control
same,T/C,"dose: 50.0 mg/kg/injection, schedule: Q01DX Z (ip), vehicle: carboxymethylcellulose (CMC)",96 % of control
same,T/C,"dose: 100.0 mg/kg/injection, schedule: Q01DX Z (ip), vehicle: carboxymethylcellulose (CMC)",103 % of control
same,T/C,"dose: 200.0 mg/kg/injection, schedule: Q01DX Z (ip), vehicle: carboxymethylcellulose (CMC)",111 % of control
CCCCCCCCCC[Si](C)(C)C,T/C,[7],100 % of control
same,T/C,[8],97 % of control
same,T/C,[9],100 % of control
NC(N)=N/N=C\CCC/C=N/N=C(N)N,T/C,"dose: 15.0 mg/kg/injection, schedule: Q01DX Z (ip), vehicle: saline",98 % of control
same,T/C,"dose: 30.0 mg/kg/injection, schedule: Q01DX Z (ip), vehicle: saline",97 % of control
same,T/C,"dose: 60.0 mg/kg/injection, schedule: Q01DX Z (ip), vehicle: saline",105 % of control
same,T/C,"dose: 60.0 mg/kg/injection, schedule: Q01DX Z (oral), vehicle: other",95 % of control
same,T/C,"dose: 120.0 mg/kg/injection, schedule: Q01DX Z (ip), vehicle: saline",94 % of control
same,T/C,"dose: 120.0 mg/kg/injection, schedule: Q01DX Z (oral), vehicle: other",100 % of control
same,T/C,"dose: 240.0 mg/kg/injection, schedule: Q01DX Z (oral), vehicle: other",97 % of control
same,T/C,"dose: 480.0 mg/kg/injection, schedule: Q01DX Z (oral), vehicle: other",102 % of control
c1cnc2c(c1)CCCC2,T/C,"dose: 50.0 mg/kg/injection, schedule: Q01DX009 (ip), vehicle: saline with Tween-80",86 % of control
same,T/C,"dose: 200.0 mg/kg/injection, schedule: Q01DX009 (ip), vehicle: saline with Tween-80",86 % of control
CC(NC(=O)NCCCl)c1ccsc1 (configuration not stated),T/C,"dose: 2.5 mg/kg/injection, schedule: Q01DX009 (ip), vehicle: Klucel (hydroxypropylcellulose) (HPC)",111 % of control
same,T/C,"dose: 5.0 mg/kg/injection, schedule: Q01DX009 (ip), vehicle: Klucel (hydroxypropylcellulose) (HPC)",98 % of control
same,T/C,"dose: 10.0 mg/kg/injection, schedule: Q01DX009 (ip), vehicle: Klucel (hydroxypropylcellulose) (HPC)",94 % of control and 92 % of control
O=C(NC(=S)Nc1ccccc1)c1cccc(Cl)c1,T/C,[10],95 % of control
same,T/C,[11],96 % of control
Nc1ncnc(N)c1NC(=O)c1ccc(SCc2ccccc2)cc1,T/C,[12],93 % of control
same,T/C,[13],88 % of control
CN(C)C(Cc1ccccc1)(C(=O)O)c1ccccc1 (configuration not stated),T/C,[7],96 % of control
same,T/C,[8],91 % of control
same,T/C,[9],88 % of control
CC(C)(C)C1CN1C(=S)Nc1ccccc1 (configuration not stated),T/C,[14],104 % of control
same,T/C,[15],105 % of control
same,T/C,[16],102 % of control
CC(C)(C)OC(=O)NC(Cc1cncn1Cc1ccccc1)C(=O)NC(Cc1c[nH]c2ccccc12)C(=O)OCc1ccccc1 (configuration not stated),T/C,[2],97 % of control
same,T/C,[4],93 % of control
same,T/C,[6],95 % of control
CC(C)(C)CC(C)(C)c1ccc(OCCOc2ccccc2NC(=O)c2ccc3ccccc3c2O)cc1,T/C,[17],98 % of control
same,T/C,[18],103 % of control
same,T/C,[19],86 % of control
COC(=O)CCc1ccc(NP(=O)(N2CC2)N2CC2)cc1,T/C,"dose: 25.0 mg/kg/injection, schedule: Q01DX015 (ip), vehicle: carboxymethylcellulose (CMC)",122 % of control
same,T/C,"dose: 50.0 mg/kg/injection, schedule: Q01DX015 (ip), vehicle: carboxymethylcellulose (CMC)",119 % of control
Nc1cccc(Br)n1,T/C,"dose: 37.5 mg/kg/injection, schedule: Q04DX002 (ip), vehicle: saline with Tween-80",88 % of control
same,T/C,"dose: 75.0 mg/kg/injection, schedule: Q04DX002 (ip), vehicle: saline with Tween-80",91 % of control
same,T/C,"dose: 150.0 mg/kg/injection, schedule: Q04DX002 (ip), vehicle: saline with Tween-80",104 % of control
CCC(CC)OC(=O)c1cc([N+](=O)[O-])cc([N+](=O)[O-])c1,T/C,[17],91 % of control
same,T/C,[18],87 % of control
same,T/C,[19],94 % of control
COc1ccc([PH+](c2ccc(OC)cc2)c2ccc(OC)cc2)cc1.COc1ccc([PH+](c2ccc(OC)cc2)c2ccc(OC)cc2)cc1.[Cl][Hg][Cl],T/C,"dose: 50.0 mg/kg/injection, schedule: Q01DX009 (ip), vehicle: Klucel (hydroxypropylcellulose) (HPC)",108 % of control
same,T/C,[12],101 % of control
same,T/C,[20],93 % of control
CC1CN1P(=O)(N1CC1C)N1CC1C (configuration not stated),T/C,"dose: 13.3 mg/kg/injection, schedule: Q01DX009 (ip), vehicle: saline",124 % of control
same,T/C,"dose: 19.0 mg/kg/injection, schedule: Q01DX009 (ip), vehicle: saline",124 % of control
same,T/C,"dose: 66.0 mg/kg/injection, schedule: Q01DX001 (ip), vehicle: saline",163 % of control
same,T/C,"dose: 99.0 mg/kg/injection, schedule: Q01DX009 (ip), vehicle: saline",88 % of control
same,T/C,"dose: 150.0 mg/kg/injection, schedule: Q01DX001 (ip), vehicle: saline",159 % of control
CCCCCCCC(=O)NOS(=O)(=O)O,T/C,"dose: 25.0 mg/kg/injection, schedule: Q01DX001 (ip), vehicle: saline",101 % of control
same,T/C,"dose: 25.0 mg/kg/injection, schedule: Q01DX009 (ip), vehicle: saline",91 % of control
same,T/C,"dose: 25.0 mg/kg/injection, schedule: Q04DX003 (ip), vehicle: saline",100 % of control
same,T/C,"dose: 50.0 mg/kg/injection, schedule: Q01DX001 (ip), vehicle: saline",97 % of control
same,T/C,"dose: 50.0 mg/kg/injection, schedule: Q01DX009 (ip), vehicle: saline",88 % of control
same,T/C,"dose: 50.0 mg/kg/injection, schedule: Q04DX003 (ip), vehicle: saline",95 % of control
same,T/C,[2],95 % of control
CNc1cnc(Cl)nc1Cl,T/C,"dose: 50.0 mg/kg/injection, schedule: Q01DX001 (ip), vehicle: acetone",98 % of control
same,T/C,"dose: 100.0 mg/kg/injection, schedule: Q01DX001 (ip), vehicle: acetone",93 % of control
same,T/C,"dose: 200.0 mg/kg/injection, schedule: Q01DX001 (ip), vehicle: acetone",97 % of control
N#Cc1cnc(N)nc1N,T/C,"dose: 50.0 mg/kg/injection, schedule: Q04DX003 (ip), vehicle: Klucel (hydroxypropylcellulose) (HPC)",113 % of control
same,T/C,[10],92 % of control
same,T/C,"dose: 75.0 mg/kg/injection, schedule: Q01DX009 (ip), vehicle: Klucel (hydroxypropylcellulose) (HPC)",102 % of control
same,T/C,[14],97 % of control
same,T/C,[11],92 % of control
same,T/C,"dose: 150.0 mg/kg/injection, schedule: Q01DX009 (ip), vehicle: Klucel (hydroxypropylcellulose) (HPC)",102 % of control
same,T/C,[15],108 % of control
CC1CC(C#N)C(CCC#N)CC1C (configuration not stated),T/C,[12],104 % of control
same,T/C,[14],93 % of control
same,T/C,[20],106 % of control
same,T/C,[15],102 % of control
same,T/C,[16],100 % of control
OC(CN1CCN(c2ccccc2)CC1)c1cc2ccccc2o1 (configuration not stated),T/C,[17],104 % of control
same,T/C,[18],94 % of control
same,T/C,[19],94 % of control
FC(F)(F)c1cccc(NC(=S)NCc2ccco2)c1,T/C,[12],90 % of control
same,T/C,[20],93 % of control
same,T/C,[13],96 % of control
CC(C)N1C(=O)NC(=O)C12CCN(Cc1ccccc1)CC2,T/C,"dose: 100.0 mg/kg/injection, schedule: Q01DX001 (ip), vehicle: carboxymethylcellulose (CMC)",101 % of control
same,T/C,"dose: 200.0 mg/kg/injection, schedule: Q01DX001 (ip), vehicle: carboxymethylcellulose (CMC)",98 % of control
same,T/C,"dose: 400.0 mg/kg/injection, schedule: Q01DX001 (ip), vehicle: carboxymethylcellulose (CMC)",95 % of control
C=CCOCC(O)CO (configuration not stated),T/C,[1],108 % of control
same,T/C,[3],94 % of control
same,T/C,[5],103 % of control
